This is an account of results in article PMC6522510 (Nature Communications, 2019).

Among the test systems are CMK; MOLM-13; CMS; ML-2; CHRF288-11; MV4-11; U937; M07e.
Parameters in all cases: species or system AML cell lines (8); Primary HTS, single concentration about 10 uM, Cell Titer Glo viability; log10 luminescence, per cent inhibition relative to cycloheximide control
What all share (settings): 72 h, relative to cycloheximide control, log10 luminescence; inhibitor

Consider `CS(=O)(=O)CCNCc1ccc(-c2ccc3ncnc(Nc4ccc(OCc5ccccc5)c(Br)c4)c3c2)o1` [SJ000573011-1, U14801/114/2], for which, in the assay on CMK, the CMK %inh amounted to 0.7024%. Moreover, the MOLM-13 %inh in the assay with MOLM-13 is 0.135%. Further, the CMS %inh in the assay with CMS amounted to 2.264%. Also, the ML-2 %inh in the assay with ML-2 is recorded as -0.7119%. Besides, the CHRF288-11 %inh in the assay on CHRF288-11 turned out to be 1.432%. Further, the MV4-11 %inh with MV4-11 is given as 1.235%. For the same compound, in the assay on U937, the U937 %inh is recorded as -1.717%. Also, in the assay with M07e, the M07e %inh was -3.258%.
Consider `Fc1ccc(-c2ncn(C3CCNCC3)c2-c2ccnc(Oc3ccc(F)c(F)c3)n2)cc1` [SJ000573012-1, JB27026-232B1], for which the CMK %inh in the assay on CMK is reported as 0.6183%. The MOLM-13 %inh with MOLM-13 is -3.394%. For the same compound, the CMS %inh in the assay with CMS is 1.648%. Further, the ML-2 %inh in the assay on ML-2 is 1.308%. Also, in the assay with CHRF288-11, the CHRF288-11 %inh is -0.6747%. In addition, the MV4-11 %inh in the assay with MV4-11 came to 1.825%. For the same compound, the U937 %inh with U937 is -1.918%. Also, the M07e %inh with M07e is reported as -2.095%.
In the case of `Fc1ccc(-c2ncn(C3CCNCC3)c2-c2ccnc(Oc3ccccc3)n2)cc1` [SJ000573013-1, JB19236-077B1], the CMK %inh in the assay on CMK is on record as -1.927%. The MOLM-13 %inh with MOLM-13 is listed as -2.821%. Further, the CMS %inh in the assay on CMS is given as -0.5294%. Besides, the ML-2 %inh in the assay with ML-2 is on record as 1.79%. The CHRF288-11 %inh in the assay with CHRF288-11 is recorded as 6.56%. The MV4-11 %inh with MV4-11 is 0.9088%. For the same compound, the U937 %inh with U937 was 2.101%. Moreover, the M07e %inh in the assay on M07e is given as 0.9358%.
Turning to `C[C@@H](Oc1cc(-n2cnc3ccc(OC4CCN(C)CC4)cc32)sc1C(N)=O)c1ccccc1Cl` [SJ000573015-1, U20958/186/1], the CMK %inh in the assay with CMK worked out at 85.68%. In addition, the MOLM-13 %inh in the assay on MOLM-13 is recorded as 100.2%. Also, the CMS %inh in the assay on CMS was 56.77%. Besides, the ML-2 %inh with ML-2 is listed as 28.2%. The CHRF288-11 %inh in the assay with CHRF288-11 was determined as 79.26%. In addition, in the assay with MV4-11, the MV4-11 %inh is given as 65.04%. Besides, the U937 %inh with U937 was found to be 71%. For the same compound, the M07e %inh in the assay with M07e was 91.2%.
Turning to `CS(=O)(=O)CCN(CC#N)Cc1ccc(-c2ccc3ncnc(Nc4ccc(OCc5cccc(F)c5)c(Cl)c4)c3c2)o1` [SJ000573016-1, U15872/6/1], in the assay with CMK, the CMK %inh was found to be 0.1592%. Further, the MOLM-13 %inh with MOLM-13 was found to be 0.2014%. Besides, the CMS %inh in the assay with CMS is on record as 3.038%. Besides, the ML-2 %inh with ML-2 is given as -0.1489%. In addition, in the assay with CHRF288-11, the CHRF288-11 %inh is on record as -2.462%. For the same compound, the MV4-11 %inh with MV4-11 is on record as -0.4968%. In the assay on U937, the U937 %inh was found to be 1.155%. Besides, the M07e %inh in the assay with M07e was found to be 3.973%.
For `COc1cc2ncn(-c3cc(OCc4ccccc4C(F)(F)F)c(C(N)=O)s3)c2cc1OC` [SJ000573017-1, U19479/72/1], the CMK %inh in the assay on CMK is reported as 61.69%. In addition, the MOLM-13 %inh with MOLM-13 is given as 75.9%. The CMS %inh with CMS is 10.85%. Moreover, the ML-2 %inh in the assay on ML-2 was found to be 50.35%. For the same compound, the CHRF288-11 %inh in the assay with CHRF288-11 is given as 5.686%. Further, the MV4-11 %inh with MV4-11 is on record as 11.51%. Further, the U937 %inh in the assay with U937 turned out to be 52.87%. Moreover, the M07e %inh in the assay with M07e is reported as 75.37%.
`COc1ccc2ncn(-c3cc(O[C@H](C)c4ccccc4Cl)c(C(N)=O)s3)c2c1` [SJ000573018-1, U20814/197/10]: the CMK %inh in the assay with CMK came out at 106.8%. In the assay with MOLM-13, the MOLM-13 %inh is 77.34%. The CMS %inh in the assay with CMS is on record as 74.69%. For the same compound, the ML-2 %inh in the assay on ML-2 came out at 40.68%. Further, the CHRF288-11 %inh in the assay on CHRF288-11 was found to be 95.84%. The MV4-11 %inh in the assay with MV4-11 came out at 78.2%. The U937 %inh in the assay with U937 turned out to be 80.58%. The M07e %inh in the assay on M07e is 105.8%.
Turning to `NC(=O)c1cc(-c2ccc(F)cc2)cc(-c2ccncc2)c1N` [SJ000573019-1, R12070/183/1], in the assay on CMK, the CMK %inh is reported as 2.8%. Moreover, the MOLM-13 %inh in the assay with MOLM-13 was 2.771%. Besides, the CMS %inh in the assay with CMS is reported as -0.425%. Also, in the assay with ML-2, the ML-2 %inh was -4.125%. Also, the CHRF288-11 %inh in the assay with CHRF288-11 is 0.09024%. In the assay with MV4-11, the MV4-11 %inh was -5.414%. In addition, in the assay on U937, the U937 %inh is recorded as -0.8611%. In the assay with M07e, the M07e %inh is on record as -3.642%.
As for `CS(=O)(=O)CCNCc1coc(-c2ccc3ncnc(Nc4ccc(OCc5ccccc5)cc4)c3c2)c1` [SJ000573020-1, U12271/135/2], in the assay on CMK, the CMK %inh worked out at 4.823%. Moreover, in the assay with MOLM-13, the MOLM-13 %inh was found to be 31.36%. In addition, the CMS %inh in the assay on CMS is -1.503%. The ML-2 %inh in the assay on ML-2 came out at 1.422%. The CHRF288-11 %inh in the assay with CHRF288-11 is reported as -1.974%. Also, the MV4-11 %inh in the assay on MV4-11 worked out at 24.68%. Also, the U937 %inh in the assay with U937 was found to be 2.077%. Moreover, the M07e %inh in the assay on M07e was -2.581%.
Regarding `NC(=O)Cc1ccccc1Oc1nccc(-c2c(-c3ccc(F)cc3)ncn2C2CCNCC2)n1` [SJ000573021-1, JB27143-130B1], the CMK %inh with CMK was -8.193%. Further, the MOLM-13 %inh in the assay with MOLM-13 is given as -3.279%. Besides, the CMS %inh in the assay with CMS stood at 1.576%. The ML-2 %inh with ML-2 was determined as 0.1798%. For the same compound, the CHRF288-11 %inh in the assay on CHRF288-11 amounted to 2.665%. The MV4-11 %inh with MV4-11 was -0.3846%. Besides, the U937 %inh with U937 is on record as -0.5311%. In the assay on M07e, the M07e %inh is recorded as -2.017%.
Turning to `CS(=O)(=O)CCNCc1ccoc1-c1ccc2ncnc(Nc3ccc(OCc4ccccc4)cc3)c2c1` [SJ000573022-1, U12271/142/3], the CMK %inh in the assay on CMK is listed as 1.228%. Besides, the MOLM-13 %inh in the assay on MOLM-13 was 26.01%. In addition, the CMS %inh in the assay with CMS is -1.789%. The ML-2 %inh in the assay with ML-2 was found to be 0.6017%. In addition, in the assay on CHRF288-11, the CHRF288-11 %inh turned out to be 3.335%. Further, in the assay on MV4-11, the MV4-11 %inh is on record as 13.73%. Further, in the assay on U937, the U937 %inh is given as -0.4603%. The M07e %inh with M07e came to 4.198%.
Turning to `COc1cc2ncn(-c3cc(OCc4ccccc4Cl)c(C(N)=O)s3)c2cc1OC` [SJ000573023-1, U22436/143/1], the CMK %inh in the assay with CMK worked out at 98.04%. The MOLM-13 %inh in the assay with MOLM-13 is on record as 81.3%. Also, in the assay on CMS, the CMS %inh worked out at 71.19%. Moreover, the ML-2 %inh in the assay on ML-2 is reported as 36.08%. Moreover, in the assay with CHRF288-11, the CHRF288-11 %inh is 71.75%. In addition, the MV4-11 %inh in the assay on MV4-11 was 72.02%. For the same compound, in the assay with U937, the U937 %inh is 71.67%. In addition, in the assay on M07e, the M07e %inh is given as 101%.
For the compound `CCS(=O)(=O)c1ccc(OC)c(Nc2ncc(-c3cccc(C(C)=O)c3)o2)c1` [SJ000573024-1, U16419/42/1], in the assay on CMK, the CMK %inh came out at 1.586%. Also, the MOLM-13 %inh with MOLM-13 is listed as 78.46%. Further, the CMS %inh with CMS is -0.9431%. Further, in the assay with ML-2, the ML-2 %inh was -2.018%. The CHRF288-11 %inh with CHRF288-11 is -0.8609%. Also, in the assay with MV4-11, the MV4-11 %inh was 66.42%. Also, in the assay with U937, the U937 %inh amounted to 71.28%. The M07e %inh in the assay with M07e is on record as 133.2%.
With `COc1cc2ncn(-c3cc(OCCc4ccccc4)c(C(N)=O)s3)c2cc1OC` [SJ000573025-1, U19479/153/8], the CMK %inh in the assay on CMK was 4.39%. Also, the MOLM-13 %inh in the assay on MOLM-13 is reported as 2.298%. Also, the CMS %inh in the assay on CMS is -1.969%. Moreover, in the assay with ML-2, the ML-2 %inh came out at 0.6694%. Besides, the CHRF288-11 %inh with CHRF288-11 is recorded as 0.4642%. In the assay with MV4-11, the MV4-11 %inh worked out at 2.077%. Moreover, the U937 %inh with U937 came out at 0.712%. Also, the M07e %inh in the assay with M07e came to 0.3839%.
Turning to `N#Cc1c(NC(=O)c2cccc3ccccc23)sc2c1CCCC2` [SJ000573026-1, R15619/70/1 | TCS JNK 5A | JNK INHIBITOR IX | | TCS JNK 5A], the CMK %inh with CMK stood at 122.9%. Besides, the MOLM-13 %inh with MOLM-13 is listed as 87.75%. For the same compound, in the assay with CMS, the CMS %inh is 100.8%. For the same compound, the ML-2 %inh with ML-2 is 58.68%. Besides, in the assay with CHRF288-11, the CHRF288-11 %inh worked out at 42.98%. For the same compound, in the assay with MV4-11, the MV4-11 %inh is 80.18%. For the same compound, the U937 %inh in the assay on U937 amounted to 83.53%. Further, the M07e %inh in the assay with M07e worked out at 97.41%.
Turning to `COc1cccc(-n2ncc3c(N/N=C/c4ccc(S(C)(=O)=O)cc4)ncnc32)c1` [SJ000573027-1, U18028/92/1], the CMK %inh in the assay with CMK is -4.499%. Also, the MOLM-13 %inh in the assay with MOLM-13 was -3.446%. Further, the CMS %inh in the assay with CMS is 0.1842%. The ML-2 %inh with ML-2 is recorded as -4.304%. Besides, the CHRF288-11 %inh with CHRF288-11 was -7.861%. In addition, the MV4-11 %inh in the assay with MV4-11 is 1.569%. Further, the U937 %inh with U937 was -1.909%. In addition, the M07e %inh in the assay with M07e is on record as -5.045%.
With `COc1cccc(Nc2nccc(-c3cnn4ncccc34)n2)c1` [SJ000573028-1, U18020/75/1], the CMK %inh in the assay with CMK is recorded as 112.7%. The MOLM-13 %inh in the assay with MOLM-13 is reported as 96.5%. Further, the CMS %inh in the assay on CMS is 93.88%. For the same compound, the ML-2 %inh in the assay on ML-2 turned out to be 57.03%. Further, the CHRF288-11 %inh in the assay with CHRF288-11 came out at 61.5%. In the assay with MV4-11, the MV4-11 %inh was determined as 76.07%. The U937 %inh in the assay on U937 was determined as 74.45%. In the assay on M07e, the M07e %inh is recorded as 96.77%.
